Results: patent US7235577B1 (priority 2000, dated 2007)

Tests used:
mKv1.1 = molecular target: T1, mKv1.1 (Mus musculus, UniProt P16388); assay: Selectivity patch clamp, L929 cells expressing mKv1.1; type: cell-based
T1 construct: expressed in transfected cells; host or cells: L929
Experimental: (§1) L929 cells stably expressing mKv1.1, rKv1.2, mKv1.3, and mKv3.1 and MEL cells stably expressing hKv1.5 have been previously described (Grissmer 1994, Mol. Pharmacol. 45: 1227). hKv1.4 and rKv4.2 were stably expressed in LTK (HK1–7). Channel expression was induced 8–12 h before the electrophysiological experiments by 4 μM dexamethasone (Sigma). HEK-293 cells stably expressing the skeletal muscle sodium channel hSkM1 (SCN4A) were generated in the laboratory of Dr. F. Lehmann-Horn. HEK-293 cells stably expressing hSloα were obtained from Dr. Andrew Tinker (Center for Clinical Pharmacology, University College London). L929, MEL, LTK and HEK cells were maintained in DMEM containing 10% heat-inactivated fetal calf serum (Summit Biotechnology, Fort Collins, Colo.) and 250 μg/ml G418 (Life Technologies, Inc.). Rat basophilic leukemia (RBL) cells were maintained in Eagle's minimum essential medium with 2 mM L-glutamine and 10% fetal calf serum. CHO cell were maintained in F12K media (ATCC). Human leukemic Jurkat E6–1 cells were cultured in RPMI 1640 supplemented with 10% fetal calf serum and 1 mM L-glutamine. T84 cells were maintained in a 1:1 mixture of Ham's F12 medium and DMEM with 2.5 mM L-glutamine and 10% fetal calf serum.
(§2) Recordings from the Jurkat SKCa channel were made in K^+ aspartate Ringer (Na^+ was replaced by K^+) with the same internal pipette solution. […]

hKv1.4 = molecular target: T2, hKv1.4 (Homo sapiens, UniProt P22459); assay: Selectivity patch clamp, LTK cells expressing hKv1.4; type: cell-based
T2 construct: expressed in transfected cells; host or cells: LTK (dexamethasone-induced)
Experimental: as §1, §2

human T-lymphocytes = assay: In vitro toxicity, propidium iodide uptake, 48 h; type: cell-based
Experimental: (§3) The in vitro toxicity was performed as follows.

rKv4.2 = molecular target: T3, rKv4.2 (Rattus norvegicus, UniProt Q63881); assay: Selectivity patch clamp, LTK cells expressing rKv4.2; type: cell-based
T3 construct: expressed in transfected cells; host or cells: LTK (dexamethasone-induced)
Experimental: as §1, §2

[1] = molecular target: human cytochrome P450 3A4 (CYP3A4) (Homo sapiens, UniProt P08684); assay: in vitro
Experimental: (§4) The test substances shown in Table 8 were evaluated for their inhibitory effect on the catalytic activity of human cytochrome P450 enzyme. Cytochrome P450 3A4 (CYP3A4) is involved in many drug-drug interactions and in many other pathways in the body including the catabolism of steroids and xenobiotics. Inhibition of this enzyme was measured in 96 well plates with 7-benzyloxy-4-trifluoro-methylcoumarin (BFC) as the substrate and cDNA-derived enzymes in microsomes prepared from baculovirus-infected insect cells.
(§5) The inhibition study consisted of the determination of inhibition by the test substance on CYP3A4 catalytic activity. […] The compounds were prepared as 10 mM stock solutions in acetonitrile. Metabolism of the model substrate was assayed by the production of 7-hydroxy-4-trifluoromethylcoumarin metabolite. The metabolite was detected by fluorescence.
(§6) Table 10 below provides a list of the name of enzymes examined, the catalog number of the microsomes used as a source of the enzyme, the concentration of the model substrate used, the amount of enzyme used, the final buffer concentration, and the positive control compound.
(§7) Assays were conducted in 96 well microtiter plates. The BFC substrate was initially prepared in acetonitrile. […] Six wells were used for one test. […] For the positive controls, 12 wells in a row were used for one test. The positive control inhibitor/enzyme combination was examined in duplicate rows. Wells 1 to 8 contained serial 1:3 dilutions of the inhibitors. The highest inhibitor concentration were as described in the table above. Wells 9 and 10 contained no inhibitor and wells 11 and 12 were blanks for background fluorescence (stop solution added before the enzyme).
(§8) After buffer, cofactors and inhibitor addition, the plates were pre-warmed to 37° C. Incubations were initiated by the addition of pre-warmed enzyme and substrate. The final cofactor concentrations were 1.3 mM NADP, 3.3 mM glucose-6-phosphate and 0.4 U/ml glucose-6-phosphate dehydrogenase. The final incubation volume was 0.2 ml. Incubations were carried out for 30 minutes [CYP3A4 (BFC)] and stopped by the addition of 0.075 ml of 80% acetonitrile-20% 0.5M Tris. Fluorescence per well was measured using a BMG FLUOstar fluorescence plate reader. The BFC metabolite 7-hydroxy-4-trifluoromethyl-coumarin was measured using an excitation wavelength of 410 nm and emission wavelength of 538 nm.

CYP3A4 = CYP3A4 (Homo sapiens, UniProt P08684); assay: in vitro; details: human
Experimental: as §4, §5, §6, §7, §8

HSKM1 = molecular target: T4, HSKM1 (Homo sapiens, UniProt P35499); assay: Selectivity patch clamp, HEK-293 cells expressing skeletal muscle sodium channel hSkM1 (SCN4A); type: cell-based
T4 construct: expressed in transfected cells; host or cells: HEK-293
Experimental: as §1, §2

BK (hSloα) = molecular target: T5, BK (hSloα) (Homo sapiens, UniProt Q12791); assay: Selectivity patch clamp, HEK-293 cells expressing hSloα (BKCa); type: cell-based
T5 construct: expressed in transfected cells; host or cells: HEK-293
Experimental: as §1, §2

rKv1.2 = molecular target: T6, rKv1.2 (Rattus norvegicus, UniProt P63142); assay: Selectivity patch clamp, L929 cells expressing rKv1.2; type: cell-based
T6 construct: expressed in transfected cells; host or cells: L929
Experimental: as §1, §2

MEL cells = assay: In vitro toxicity, propidium iodide uptake, 48 h; type: cell-based, murine
Experimental: as §3

L929 cells = assay: In vitro toxicity, propidium iodide uptake, 48 h; type: cell-based, murine
Experimental: as §3

RBL-2H3 cells = assay: In vitro toxicity, propidium iodide uptake, 48 h; type: cell-based, rat
Experimental: as §3

Jurkat-SK = molecular target: T7, Jurkat-SK (Homo sapiens, UniProt Q9H2S1); assay: Selectivity patch clamp, Jurkat SKCa channel; type: cell-based
T7 construct: endogenous in cells; host or cells: Jurkat E6-1
Experimental: as §1, §2

hKv1.5 = molecular target: T8, hKv1.5 (Homo sapiens, UniProt P22460); assay: Selectivity patch clamp, MEL cells expressing hKv1.5; type: cell-based
T8 construct: expressed in transfected cells; host or cells: MEL
Experimental: as §1, §2

Sequence of human cytochrome P450 3A4 (CYP3A4) (P08684 whole entry): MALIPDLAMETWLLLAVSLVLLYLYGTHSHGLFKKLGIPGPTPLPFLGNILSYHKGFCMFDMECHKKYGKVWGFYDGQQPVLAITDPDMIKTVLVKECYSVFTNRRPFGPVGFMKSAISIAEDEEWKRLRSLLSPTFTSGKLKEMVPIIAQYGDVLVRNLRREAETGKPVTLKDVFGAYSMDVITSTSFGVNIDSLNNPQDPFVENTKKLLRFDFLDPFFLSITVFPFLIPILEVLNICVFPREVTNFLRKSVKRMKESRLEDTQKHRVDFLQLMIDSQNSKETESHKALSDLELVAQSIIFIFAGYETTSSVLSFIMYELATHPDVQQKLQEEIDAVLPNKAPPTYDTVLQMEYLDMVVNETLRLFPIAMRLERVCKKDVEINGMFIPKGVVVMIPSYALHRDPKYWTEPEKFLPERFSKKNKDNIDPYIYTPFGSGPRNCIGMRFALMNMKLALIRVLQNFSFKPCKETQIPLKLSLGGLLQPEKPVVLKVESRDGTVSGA
T3 sequence (Q63881 whole entry): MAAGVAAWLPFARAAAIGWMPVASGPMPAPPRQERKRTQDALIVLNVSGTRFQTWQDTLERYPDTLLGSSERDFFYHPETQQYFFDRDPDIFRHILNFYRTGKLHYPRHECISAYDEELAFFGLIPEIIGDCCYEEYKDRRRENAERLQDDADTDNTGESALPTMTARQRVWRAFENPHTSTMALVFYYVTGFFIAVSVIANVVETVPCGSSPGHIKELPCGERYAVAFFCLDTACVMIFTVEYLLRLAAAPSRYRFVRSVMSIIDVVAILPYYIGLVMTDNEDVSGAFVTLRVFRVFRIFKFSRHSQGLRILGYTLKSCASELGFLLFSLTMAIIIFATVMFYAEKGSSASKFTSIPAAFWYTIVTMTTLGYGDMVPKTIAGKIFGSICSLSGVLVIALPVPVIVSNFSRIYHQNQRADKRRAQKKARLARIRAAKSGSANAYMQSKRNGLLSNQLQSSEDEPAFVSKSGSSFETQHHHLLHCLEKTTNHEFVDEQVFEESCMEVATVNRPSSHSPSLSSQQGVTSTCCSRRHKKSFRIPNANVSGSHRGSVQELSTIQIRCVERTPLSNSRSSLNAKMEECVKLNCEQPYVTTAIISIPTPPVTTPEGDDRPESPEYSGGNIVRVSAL
T5 sequence (Q12791 whole entry): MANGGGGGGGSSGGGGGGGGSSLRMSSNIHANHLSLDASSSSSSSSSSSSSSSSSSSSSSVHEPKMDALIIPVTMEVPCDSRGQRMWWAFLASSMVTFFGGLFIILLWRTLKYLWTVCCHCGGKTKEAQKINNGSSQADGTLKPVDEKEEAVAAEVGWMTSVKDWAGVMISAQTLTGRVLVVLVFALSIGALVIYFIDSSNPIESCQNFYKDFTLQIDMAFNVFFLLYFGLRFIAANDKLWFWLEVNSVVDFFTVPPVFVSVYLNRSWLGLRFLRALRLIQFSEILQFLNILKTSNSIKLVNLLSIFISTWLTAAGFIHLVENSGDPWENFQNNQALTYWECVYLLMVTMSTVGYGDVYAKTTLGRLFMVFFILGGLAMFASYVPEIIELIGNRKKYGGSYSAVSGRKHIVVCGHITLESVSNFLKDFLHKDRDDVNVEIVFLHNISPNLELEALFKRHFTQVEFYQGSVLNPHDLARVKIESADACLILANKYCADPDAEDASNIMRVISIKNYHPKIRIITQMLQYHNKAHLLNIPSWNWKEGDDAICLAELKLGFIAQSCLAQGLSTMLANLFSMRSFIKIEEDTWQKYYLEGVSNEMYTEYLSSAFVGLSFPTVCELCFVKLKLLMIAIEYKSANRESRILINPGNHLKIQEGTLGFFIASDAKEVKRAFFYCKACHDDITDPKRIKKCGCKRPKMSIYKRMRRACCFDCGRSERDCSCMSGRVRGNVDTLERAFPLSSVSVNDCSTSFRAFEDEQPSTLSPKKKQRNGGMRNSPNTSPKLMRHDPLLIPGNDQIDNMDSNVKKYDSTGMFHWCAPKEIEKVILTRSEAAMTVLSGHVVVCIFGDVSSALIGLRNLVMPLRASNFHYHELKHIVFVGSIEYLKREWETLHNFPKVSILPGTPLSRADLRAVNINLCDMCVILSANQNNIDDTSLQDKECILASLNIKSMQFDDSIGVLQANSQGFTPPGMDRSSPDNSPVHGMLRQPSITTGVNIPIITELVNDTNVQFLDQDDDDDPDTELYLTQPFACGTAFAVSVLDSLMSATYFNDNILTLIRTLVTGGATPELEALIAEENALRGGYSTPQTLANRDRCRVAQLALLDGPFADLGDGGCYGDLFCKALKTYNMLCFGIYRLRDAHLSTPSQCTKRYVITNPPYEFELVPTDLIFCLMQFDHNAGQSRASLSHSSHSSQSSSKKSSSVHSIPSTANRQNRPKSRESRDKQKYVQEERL
T8 sequence (P22460 whole entry): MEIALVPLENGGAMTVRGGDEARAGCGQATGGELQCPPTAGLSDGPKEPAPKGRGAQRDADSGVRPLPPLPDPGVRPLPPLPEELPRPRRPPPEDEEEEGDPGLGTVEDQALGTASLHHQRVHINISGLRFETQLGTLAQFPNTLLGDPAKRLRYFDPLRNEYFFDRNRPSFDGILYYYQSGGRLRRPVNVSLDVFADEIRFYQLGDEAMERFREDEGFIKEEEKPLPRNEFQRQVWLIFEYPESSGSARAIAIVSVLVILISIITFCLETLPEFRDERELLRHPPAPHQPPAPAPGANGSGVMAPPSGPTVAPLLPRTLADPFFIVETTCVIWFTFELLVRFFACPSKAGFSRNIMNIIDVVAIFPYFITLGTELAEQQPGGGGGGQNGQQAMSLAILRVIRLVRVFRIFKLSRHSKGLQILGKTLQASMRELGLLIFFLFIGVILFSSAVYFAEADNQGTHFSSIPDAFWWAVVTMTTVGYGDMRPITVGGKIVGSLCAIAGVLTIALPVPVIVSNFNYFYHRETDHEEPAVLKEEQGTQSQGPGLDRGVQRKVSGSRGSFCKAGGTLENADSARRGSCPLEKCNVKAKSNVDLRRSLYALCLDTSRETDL
T4 sequence (P35499 whole entry): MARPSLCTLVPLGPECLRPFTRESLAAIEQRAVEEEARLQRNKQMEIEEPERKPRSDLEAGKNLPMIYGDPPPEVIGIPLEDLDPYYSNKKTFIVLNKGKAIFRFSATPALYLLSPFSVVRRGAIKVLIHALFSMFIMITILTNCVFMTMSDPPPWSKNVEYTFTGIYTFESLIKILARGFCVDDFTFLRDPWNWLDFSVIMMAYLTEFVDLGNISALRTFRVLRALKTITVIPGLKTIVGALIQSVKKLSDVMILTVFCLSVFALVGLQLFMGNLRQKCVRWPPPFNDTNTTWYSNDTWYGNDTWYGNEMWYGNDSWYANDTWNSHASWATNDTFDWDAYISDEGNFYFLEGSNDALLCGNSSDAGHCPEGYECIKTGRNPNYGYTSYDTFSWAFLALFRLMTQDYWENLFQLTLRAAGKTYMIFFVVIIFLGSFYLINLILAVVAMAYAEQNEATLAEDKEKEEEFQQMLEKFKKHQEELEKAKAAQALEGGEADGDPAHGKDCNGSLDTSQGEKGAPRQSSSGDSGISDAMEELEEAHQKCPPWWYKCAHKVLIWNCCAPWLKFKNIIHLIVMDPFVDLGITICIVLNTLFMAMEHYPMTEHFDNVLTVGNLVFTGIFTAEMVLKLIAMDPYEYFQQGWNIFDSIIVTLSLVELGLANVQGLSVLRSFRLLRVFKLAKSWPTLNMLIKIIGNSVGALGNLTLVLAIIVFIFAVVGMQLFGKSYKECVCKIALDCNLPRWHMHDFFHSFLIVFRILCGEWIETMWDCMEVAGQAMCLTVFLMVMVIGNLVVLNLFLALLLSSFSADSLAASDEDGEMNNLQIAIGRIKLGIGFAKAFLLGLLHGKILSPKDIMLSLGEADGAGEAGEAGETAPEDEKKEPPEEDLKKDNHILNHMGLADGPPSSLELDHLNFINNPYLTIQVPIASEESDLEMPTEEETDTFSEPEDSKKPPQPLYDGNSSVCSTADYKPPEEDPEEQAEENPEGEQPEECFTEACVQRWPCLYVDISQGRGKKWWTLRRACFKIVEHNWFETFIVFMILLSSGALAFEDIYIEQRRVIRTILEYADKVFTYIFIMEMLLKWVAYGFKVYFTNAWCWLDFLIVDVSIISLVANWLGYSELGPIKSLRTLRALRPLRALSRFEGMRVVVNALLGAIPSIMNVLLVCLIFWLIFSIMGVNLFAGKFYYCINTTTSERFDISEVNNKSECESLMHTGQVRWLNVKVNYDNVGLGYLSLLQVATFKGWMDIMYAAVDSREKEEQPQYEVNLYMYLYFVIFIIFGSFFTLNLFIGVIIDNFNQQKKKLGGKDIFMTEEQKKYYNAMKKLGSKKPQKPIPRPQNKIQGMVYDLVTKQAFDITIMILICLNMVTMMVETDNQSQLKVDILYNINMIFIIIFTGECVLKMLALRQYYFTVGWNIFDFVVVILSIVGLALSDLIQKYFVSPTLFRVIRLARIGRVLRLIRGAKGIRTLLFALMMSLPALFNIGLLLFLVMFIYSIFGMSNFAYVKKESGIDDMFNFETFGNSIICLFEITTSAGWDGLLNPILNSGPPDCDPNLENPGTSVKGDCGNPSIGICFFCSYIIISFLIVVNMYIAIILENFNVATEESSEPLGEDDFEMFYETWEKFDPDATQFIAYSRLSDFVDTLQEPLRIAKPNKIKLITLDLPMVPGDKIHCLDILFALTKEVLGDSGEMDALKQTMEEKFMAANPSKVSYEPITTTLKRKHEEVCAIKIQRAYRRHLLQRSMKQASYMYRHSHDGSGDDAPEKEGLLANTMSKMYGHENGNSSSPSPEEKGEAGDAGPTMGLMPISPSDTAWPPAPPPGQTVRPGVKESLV
Sequence of CYP3A4 (P08684 whole entry): as the sequence (P08684 whole entry) above

For Clc1ccccc1C(c1ccccc1)(c1ccccc1)n1cccn1 [Compound T34, 1-[(2-Chlorophenyl)diphenylmethyl]-1H-pyrazole], the Kd (mKv1.1) was 9.5 ± 1 µM, the Kd (hKv1.4) was 7.5 ± 0.41 µM and the “percentage of dead cells (PI uptake)” value (human T-lymphocytes; 2 μM) was 6.2%. The “percentage of dead cells (PI uptake)” value (human T-lymphocytes; 5 μM) was 7.0%, the Kd (rKv4.2) was 6 ± 0.87 µM and the “EC50 for inhibition of CYP3A4” value ([1]; T34 tested up to 10 μM) was “No inhibitory”. For the same compound, the “Inhibition of CYP3A4 activity” value ([1]; up to 10 μM) was “does not inhibit the activity of CYP3A4”, the inhibition at 30 min, 10 μM (CYP3A4) was -77.5% and the Kd (HSKM1) was 8 ± 0.6 µM. For the same compound, the Kd (BK (hSloα)) was 25 ± 1.8 µM, the Kd (rKv1.2) was 4.5 ± 0.52 µM and the “percentage of dead cells (PI uptake)” value (MEL cells; 2 μM) was 6.2%. For the same compound, the “percentage of dead cells (PI uptake)” value (MEL cells; 5 μM) was 5.8%, the “percentage of dead cells (PI uptake)” value (L929 cells; 2 μM) was 4.6% and the “percentage of dead cells (PI uptake)” value (L929 cells; 5 μM) was 7.5%. For the same compound, the logP (logP) was 4, the “percentage of dead cells (PI uptake)” value (RBL-2H3 cells; 2 μM) was 7.9% and the “percentage of dead cells (PI uptake)” value (RBL-2H3 cells; 5 μM) was 8.8%. For the same compound, the Kd (Jurkat-SK) was 23 ± 2 µM and the Kd (hKv1.5) was 7 ± 0.62 µM.
